Positions of bridges follow the written chain, without caps; N, C: chain ends. Residues, ends and D or L forms follow the SMILES beside them. Chains are numbered I, II in the order given. No end group written: not given here.
Assay: Circular dichroism: helix content and θ222/θ208 ratio
Assay type: physicochemical
Details: CD, peptide 8 μM; for helix content in 20% TFE: room temperature, from MRE at 222 nm; for helix content in 20% TFE / ratio θ222/θ208 in TFE: 20% TFE; for ratio θ222/θ208 in TFE / ratio θ222/θ208 in lipids / ratio θ222/θ208 in buffer: <0.8 monomeric, >1.0 oligomeric state; for helix content in DOPG/Chol / ratio θ222/θ208 in lipids: DOPG/Chol 60/40 LUVs; for helix content in DOPG/Chol: P/L 0.05, from MRE at 222 nm; for ratio θ222/θ208 in lipids: P/L 0.05; for helix content in buffer: sodium phosphate 5 mM pH 7.4, room temperature, from MRE at 222 nm (Chakrabartty et al.)
From the text: The circular dichroism (CD) analysis was used to reveal changes of the secondary structure with respect to the parent peptide in different experimental conditions (Figure 7). […] The helix content is probably underscored because oligomerization processes are taking place in this condition. The CD spectra were also obtained in presence of DOPG/Chol.
Figure 7 Circular dichroism spectra of gH625, gH625-H7 and gH625-G7 in buffer (A), 20% TFE (B) and DOPG/Chol 60/40 (mol/mol) LUVs (C). Peptide concentration used is 8 μM in all conditions tested and the peptide/lipid ratio is 0.05 in condition C.
The ratio of the ellipticities at 222 and 208 nm can be utilized to distinguish between monomeric and oligomeric states of helices, [49]; when the ratio θ222/θ208 is lower than 0.8, the peptide is essentially in its monomeric state, and when the ratio exceeds the value of 1.0, it is in its oligomeric state. The data reveal that in presence of TFE and of lipids, gH625 adopts an α-helical conformation with the monomer/oligomer equilibrium shifted toward the oligomeric state with a ratio θ222/θ208 of approximately 0.9 in both conditions, while in buffer the ratio decreases to 0.5 indicating a monomeric state. […] (Figure 7B,C). We repeated the experiment after centrifugation to remove eventual precipitated peptides from solution, however, the aggregates were molecular in size, and centrifugation had no effect on the spectra. The same analysis were performed on gH625-H7. The peptide adopts an α-helical conformation also in buffer, with a ratio θ222/θ208 of approximately 0.7, 0.9 and 1.2 in buffer, TFE and lipids.
CD spectra were recorded in a 1.0 or 0.1 cm quartz cell at room temperature using a Jasco J-715 spectropolarimeter. The spectra are an average of 3 consecutive scans from 260 to 195 nm, recorded with a band width of 3 nm, a time constant of 16 s, and a scan rate of 10 nm/min. Spectra were recorded and corrected for the background contributions by substracting blank samples. Mean residue ellipticities (MRE) were calculated using the expression MRE = Obsd/(lcn), where Obsd is the ellipticity measured in millidegrees, l is the path length of the cell in cm, c is the peptide concentration in mol/l, and n is the number of amino acid residues in the peptide. The peptide concentration was 8 μM both in buffer (sodium phosphate 5 mM pH 7.4) and at different percentages of TFE. Peptide samples in DOPG/Chol (60/40 mol/mol) were prepared using the following protocol[32]: all peptides were first dissolved in TFE; immediately after preparation, the peptide solution was added to an equal volume of a chloroform/methanol solution containing the appropriate lipid concentration; solutions were dried with a nitrogen gas stream and lyophilized overnight; the dry samples were rehydrated with buffer to yield a final peptide concentration of 8 μM with a P/L ratio of 0.05 and extruded. The percentage of helix was calculated from measurements of their mean residue ellipticity at 222 nm[47]. We used [ϑ]222 values of 0 and −40.000(1–2.5/n) deg cm^2 dmol^−1 per amino acid residue for 0% and 100% helicity; n is the number of amino acid residues.

Row | Compound | helix content in 20% TFE | ratio θ222/θ208 in TFE | helix content in DOPG/Chol | ratio θ222/θ208 in lipids | ratio θ222/θ208 in buffer | helix content in buffer
1 | CC[C@H](C)[C@H](NC(=O)[C@H](CC(C)C)NC(=O)[C@H](C)NC(=O)[C@H](CC(N)=O)NC(=O)[C@H](Cc1ccc(O)cc1)NC(=O)[C@H](Cc1c[nH]cn1)NC(=O)[C@H](C)NC(=O)[C@H](Cc1c[nH]c2ccccc12)NC(=O)[C@H](CCCNC(=N)N)NC(=O)[C@@H](NC(=O)[C@H](CC(C)C)NC(=O)[C@@H](NC(=O)[C@H](CO)NC(=O)[C@H](C)NC(=O)[C@H](CC(C)C)NC(=O)CNC(=O)[C@@H](N)Cc1c[nH]cn1)[C@@H](C)O)[C@@H](C)O)C(=O)N[C@@H](CCCNC(=N)N)C(=O)N[C@@H](C)C(=O)N[C@@H](Cc1ccccc1)C(N)=O [gH625] (H-HGLASTLTRWAHYNALIRAF-NH2) | 22% | approximately 0.9 | 37% | approximately 0.9 | 0.5 | 5%
2 | CC[C@H](C)[C@H](NC(=O)[C@H](CC(C)C)NC(=O)[C@H](C)NC(=O)[C@H](CC(N)=O)NC(=O)[C@H](Cc1ccc(O)cc1)NC(=O)[C@H](Cc1c[nH]cn1)NC(=O)[C@H](C)NC(=O)[C@H](Cc1c[nH]c2ccccc12)NC(=O)[C@H](CCCNC(=N)N)NC(=O)[C@@H](NC(=O)[C@H](CC(C)C)NC(=O)[C@@H](NC(=O)[C@H](CO)NC(=O)[C@H](C)NC(=O)[C@H](CC(C)C)NC(=O)CNC(=O)[C@@H](N)Cc1c[nH]cn1)[C@@H](C)O)[C@@H](C)O)C(=O)N[C@@H](CCCNC(=N)N)C(=O)N[C@@H](C)C(=O)N[C@@H](Cc1ccccc1)C(=O)NCC(=O)NCC(=O)NCC(=O)N[C@@H](CCCCN)C(=O)N[C@@H](CCCCN)C(=O)N[C@@H](CCCCN)C(=O)N[C@@H](CCCCN)C(N)=O [gH625-G7] (H-HGLASTLTRWAHYNALIRAFGGGKKKK-NH2) | 36% | 0.7 | 55% | 1.0 | – | 7%
3 | I: HGLASTLTRWAHYNALIRAFGCGKKKK-NH2 / II: HGLASTLTRWAHYNALIRAFGCGKKKK-NH2 (disulfide I:22-II:22) [gH625-H7] | approximately 20% | approximately 0.9 | – | ~1.2 | approximately 0.7 | 8%

Source: publication PMC5572722, “Dimerization in tailoring uptake efficacy of the HSV-1 derived membranotropic peptide gH625” (Scientific Reports, 2017)
